Reference: ChEMBL document CHEMBL2157990 (ACS Med Chem Lett, 2012)
pEC50, pIC50: −log10 of the molar value. Calls of active or inactive are those of the source. No cut-off for these calls is given here.

Columns and labels:
Homo sapiens [1] = species on record: Homo sapiens; experiment: Reversal of amyloid beta-induced inhibition of chymotrypsin-like activity of PA28-activated human 20S proteasome using suc-LLVY-AMC as substrate by fluorescence assay
[2] = Activation of chymotrypsin-like activity of human 20S proteasome using suc-LLVY-AMC as substrate by fluorescence assay; settings: for pEC50: read-out: EC50
Homo sapiens [3] = species on record: Homo sapiens; experiment: Reversal of amyloid beta-induced inhibition of chymotrypsin-like activity of PA28-activated human 20S proteasome using suc-LLVY-AMC as substrate at 14 uM by fluorescence assay; set-up: scale not given: the % may be the effect or the level left
Homo sapiens [4] = species on record: Homo sapiens; experiment: Activation of chymotrypsin-like activity of human 20S proteasome using suc-LLVY-AMC as substrate at 18 uM by fluorescence assay
[5] = Activation of caspase-like activity of human 20S proteasome using (Z)-LLE-bNA as substrate by fluorescence assay
[6] = Activation of trypsin-like activity of human 20S proteasome using Bz-VGR-AMC as substrate by fluorescence assay
Homo sapiens [7] = species on record: Homo sapiens; experiment: Activation of chymotrypsin-like activity of human 20S proteasome using suc-LLVY-AMC as substrate at 18 uM by fluorescence assay in presence of 1.1 to 30 ug/mL
[8] = Inhibition of PA28 activated chymotrypsin-like activity of human 20S proteasome using suc-LLVY-AMC as substrate by fluorescence assay; settings: for pIC50: read-out: IC50
Homo sapiens [9] = species on record: Homo sapiens; experiment: Activation of chymotrypsin-like activity of human 20S proteasome using suc-LLVY-AMC as substrate by fluorescence assay relative to control

COC(=O)CC[C@@H](C)[C@H]1CC[C@H]2[C@@H]3CC[C@@H]4C[C@H](OC(=O)CCCCCC(=O)O)CC[C@]4(C)[C@H]3CC[C@]12C
Activity (Homo sapiens [1]): Dose-dependent effect | pEC50 [2]: 5.11 | Activity (Homo sapiens [3]): 50% | Activity (Homo sapiens [4]): Active | pEC50 [5]: 4.96 | pEC50 [6]: 5.07 | Activity (Homo sapiens [7]): Active | IC50 [8]: Not Active

COC(=O)CC[C@@H](C)[C@H]1CC[C@H]2[C@@H]3CC[C@@H]4C[C@H](NC(=O)CCCCCC(=O)O)CC[C@]4(C)[C@H]3CC[C@]12C
pEC50 [2]: 5.37 | fold change (FC) (Homo sapiens [9]): 2 | IC50 [8]: Not Active

COC(=O)CC[C@@H](C)[C@H]1CC[C@H]2[C@@H]3CC[C@@H]4C[C@@H](OC(=O)CCCCCC(=O)O)CC[C@]4(C)[C@H]3CC[C@]12C
EC50 [2]: Not Active | pIC50 [8]: 5.51

COC(=O)CC[C@@H](C)[C@H]1CC[C@H]2[C@@H]3CC[C@@H]4C[C@@H](N)CC[C@]4(C)[C@H]3CC[C@]12C
EC50 [2]: Not Active | pIC50 [8]: 5.24

CNC(=O)CC[C@@H](C)[C@H]1CC[C@H]2[C@@H]3CC[C@@H]4C[C@H](OC(=O)CCCCCC(=O)O)CC[C@]4(C)[C@H]3CC[C@]12C
EC50 [2]: Not Active | IC50 [8]: Not Active

COC(=O)CC[C@@H](C)[C@H]1CC[C@H]2[C@@H]3CC[C@@H]4C[C@H](N)CC[C@]4(C)[C@H]3CC[C@]12C
pEC50 [2]: 5.17 | IC50 [8]: Not Active

C[C@H](CCC(=O)O)[C@H]1CC[C@H]2[C@@H]3CC[C@@H]4C[C@H](O)CC[C@]4(C)[C@H]3CC[C@]12C [LITHOCHOLIC ACID]
EC50 [2]: Not Active | pIC50 [8]: < 5.00

COC(=O)CC[C@@H](C)[C@H]1CC[C@H]2[C@@H]3CC[C@@H]4C[C@@H](NC(=O)CCCCCC(=O)O)CC[C@]4(C)[C@H]3CC[C@]12C
EC50 [2]: Not Active | pIC50 [8]: 5.59

C/C=C1/[C@H](O[C@@H]2O[C@H](CO)[C@@H](O)[C@H](O)[C@H]2O)OC=C(C(=O)OC)[C@H]1CC(=O)OCCc1ccc(O)c(O)c1 [OLEUROPEIN]
EC50 [2]: Not Active | IC50 [8]: Not Active

C[C@H](CCC(=O)O)[C@H]1CC[C@H]2[C@@H]3CC[C@@H]4C[C@H](OC(=O)CCCCCC(=O)O)CC[C@]4(C)[C@H]3CC[C@]12C
pEC50 [2]: < 4.82 | IC50 [8]: Not Active

CCOC(=O)CC[C@@H](C)[C@H]1CC[C@H]2[C@@H]3CC[C@@H]4C[C@H](OC(=O)CCCCCC(=O)O)CC[C@]4(C)[C@H]3CC[C@]12C
pEC50 [2]: < 4.82 | IC50 [8]: Not Active
